From PubChem BioAssay AID1963841 (Molecular Pharmacology Branch, DTP, NCI, 2024)

Tested on: 439559-082-T-J2-PDC spheroid viability
Assay: Anticancer human tumor 439559-082-T-J2-PDC patient-derived colon adenocarcinoma cell line growth inhibition [POLQ]
Conditions: spheroids with HUVEC and MSC; for IC50: curve of first compound; for viability, T/C: stronger effect = lower value
Method in brief: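 Complex spheroid viability model combining PDC tumour cells with endothelial (HUVEC) and MSC stromal cells. Novobiocin, ART-558 or RP6685 were tested singly and in combination with standard and investigational anticancer drugs. Each was titrated in half-log steps from near clinical Cmax, or from 10 microM where Cmax was unknown.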

[1] = second compound 0.0316 µM, first compound 0.0316 µM
[2] = second compound 0.0316 µM, first compound 0.1 µM
[3] = second compound 0.0316 µM, first compound 0.316 µM
[4] = second compound 0.0316 µM, first compound 1 µM
[5] = second compound 0.0316 µM, first compound 3.16 µM
[6] = second compound 0.0316 µM, first compound 10 µM
[7] = second compound 0.1 µM, first compound 0.0316 µM
[8] = second compound 0.1 µM, first compound 0.1 µM
[9] = second compound 0.1 µM, first compound 0.316 µM
[10] = second compound 0.1 µM, first compound 1 µM
[11] = second compound 0.1 µM, first compound 3.16 µM
[12] = second compound 0.1 µM, first compound 10 µM
[13] = second compound 0.316 µM, first compound 0.0316 µM
[14] = second compound 0.316 µM, first compound 0.1 µM
[15] = second compound 0.316 µM, first compound 0.316 µM
[16] = second compound 0.316 µM, first compound 1 µM
[17] = second compound 0.316 µM, first compound 3.16 µM
[18] = second compound 0.316 µM, first compound 10 µM
[19] = second compound 1 µM, first compound 0.0316 µM
[20] = second compound 1 µM, first compound 0.1 µM
[21] = second compound 1 µM, first compound 0.316 µM
[22] = second compound 1 µM, first compound 1 µM
[23] = second compound 1 µM, first compound 3.16 µM
[24] = second compound 1 µM, first compound 10 µM
[25] = second compound 3.16 µM, first compound 0.0316 µM
[26] = second compound 3.16 µM, first compound 0.1 µM
[27] = second compound 3.16 µM, first compound 0.316 µM
[28] = second compound 3.16 µM, first compound 1 µM
[29] = second compound 3.16 µM, first compound 3.16 µM
[30] = second compound 3.16 µM, first compound 10 µM
[31] = second compound 10 µM, first compound 0.0316 µM
[32] = second compound 10 µM, first compound 0.1 µM
[33] = second compound 10 µM, first compound 0.316 µM
[34] = second compound 10 µM, first compound 1 µM
[35] = second compound 10 µM, first compound 3.16 µM
[36] = second compound 10 µM, first compound 10 µM
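Further: spheroids exposed to compounds for seven days before readout.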
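Wherever viability, T/C is given: 100% = DMSO vehicle control viability.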

## CC1COCCN1c1cc(-c2ccnn2C)c2ccnc(-c3ccn[nH]3)c2n1 (stereo not drawn) + Cc1cccc(N(C)C(=O)C2C(O)CCN2c2nc(C)cc(C(F)(F)F)c2C#N)c1
Second compound 0.0316 µM
  IC50: 0.557 µM
Second compound 0.1 µM
  IC50: 0.397 µM
Second compound 0.316 µM
  IC50: 0.311 µM
Second compound 1 µM
  IC50: 0.478 µM
Second compound 3.16 µM
  IC50: 0.291 µM
Second compound 10 µM
  IC50: 0.841 µM
[1]
  viability, T/C: 91%
[2]
  viability, T/C: 79.8%
[3]
  viability, T/C: 50.9%
[4]
  viability, T/C: 49.7%
[5]
  viability, T/C: 53.6%
[6]
  viability, T/C: 43.6%
[7]
  viability, T/C: 95.5%
[8]
  viability, T/C: 81.1%
[9]
  viability, T/C: 51.2%
[10]
  viability, T/C: 44.3%
[11]
  viability, T/C: 49.4%
[12]
  viability, T/C: 43.3%
[13]
  viability, T/C: 87.7%
[14]
  viability, T/C: 80.3%
[15]
  viability, T/C: 49.5%
[16]
  viability, T/C: 47.8%
[17]
  viability, T/C: 51.6%
[18]
  viability, T/C: 40.8%
[19]
  viability, T/C: 92.9%
[20]
  viability, T/C: 76.9%
[21]
  viability, T/C: 52%
[22]
  viability, T/C: 46.2%
[23]
  viability, T/C: 51.4%
[24]
  viability, T/C: 37.4%
[25]
  viability, T/C: 89%
[26]
  viability, T/C: 76.8%
[27]
  viability, T/C: 47.2%
[28]
  viability, T/C: 46.7%
[29]
  viability, T/C: 55.8%
[30]
  viability, T/C: 42%
[31]
  viability, T/C: 82.3%
[32]
  viability, T/C: 72.3%
[33]
  viability, T/C: 50.6%
[34]
  viability, T/C: 49.7%
[35]
  viability, T/C: 49.8%
[36]
  viability, T/C: 36.8%

## CC1COCCN1c1cc(C2(S(C)(=N)=O)CC2)nc(-c2ccnc3[nH]ccc23)n1 (stereo not drawn) + Cc1cccc(N(C)C(=O)C2C(O)CCN2c2nc(C)cc(C(F)(F)F)c2C#N)c1
Second compound 0.0316 µM
  IC50: > 10 µM
Second compound 0.1 µM
  IC50: > 10 µM
Second compound 0.316 µM
  IC50: > 10 µM
Second compound 1 µM
  IC50: > 10 µM
Second compound 3.16 µM
  IC50: > 10 µM
Second compound 10 µM
  IC50: > 10 µM
[1]
  viability, T/C: 105%
[2]
  viability, T/C: 102%
[3]
  viability, T/C: 104%
[4]
  viability, T/C: 92.4%
[5]
  viability, T/C: 83.4%
[6]
  viability, T/C: 70.5%
[7]
  viability, T/C: 98.6%
[8]
  viability, T/C: 101%
[9]
  viability, T/C: 97.9%
[10]
  viability, T/C: 101%
[11]
  viability, T/C: 84.7%
[12]
  viability, T/C: 70.4%
[13]
  viability, T/C: 97.3%
[14]
  viability, T/C: 97.8%
[15]
  viability, T/C: 103%
[16]
  viability, T/C: 94.5%
[17]
  viability, T/C: 94.2%
[18]
  viability, T/C: 75%
[19]
  viability, T/C: 102%
[20]
  viability, T/C: 98.2%
[21]
  viability, T/C: 101%
[22]
  viability, T/C: 92.1%
[23]
  viability, T/C: 89.1%
[24]
  viability, T/C: 69.2%
[25]
  viability, T/C: 101%
[26]
  viability, T/C: 103%
[27]
  viability, T/C: 99.9%
[28]
  viability, T/C: 96.6%
[29]
  viability, T/C: 92.2%
[30]
  viability, T/C: 68.3%
[31]
  viability, T/C: 95%
[32]
  viability, T/C: 89.6%
[33]
  viability, T/C: 96%
[34]
  viability, T/C: 96.6%
[35]
  viability, T/C: 80.5%
[36]
  viability, T/C: 59.1%

## CCc1cc2c(N3CCc4c(cc(Cn5ccnc5)cc4-c4cn(C)nc4C(F)(F)F)C3=O)ccnc2c(OC)n1 + Cc1cccc(N(C)C(=O)C2C(O)CCN2c2nc(C)cc(C(F)(F)F)c2C#N)c1
Second compound 0.0316 µM
  IC50: > 10 µM
Second compound 0.1 µM
  IC50: > 10 µM
Second compound 0.316 µM
  IC50: > 10 µM
Second compound 1 µM
  IC50: > 10 µM
Second compound 3.16 µM
  IC50: > 10 µM
Second compound 10 µM
  IC50: > 10 µM
[1]
  viability, T/C: 98%
[2]
  viability, T/C: 95.5%
[3]
  viability, T/C: 101%
[4]
  viability, T/C: 97.1%
[5]
  viability, T/C: 93.1%
[6]
  viability, T/C: 87%
[7]
  viability, T/C: 126%
[8]
  viability, T/C: 96.4%
[9]
  viability, T/C: 90.6%
[10]
  viability, T/C: 92.5%
[11]
  viability, T/C: 95.2%
[12]
  viability, T/C: 89.4%
[13]
  viability, T/C: 105%
[14]
  viability, T/C: 109%
[15]
  viability, T/C: 102%
[16]
  viability, T/C: 98%
[17]
  viability, T/C: 98.8%
[18]
  viability, T/C: 83.7%
[19]
  viability, T/C: 101%
[20]
  viability, T/C: 104%
[21]
  viability, T/C: 85.1%
[22]
  viability, T/C: 93.7%
[23]
  viability, T/C: 93%
[24]
  viability, T/C: 90.2%
[25]
  viability, T/C: 115%
[26]
  viability, T/C: 106%
[27]
  viability, T/C: 83.3%
[28]
  viability, T/C: 92.2%
[29]
  viability, T/C: 103%
[30]
  viability, T/C: 96.1%
[31]
  viability, T/C: 94.9%
[32]
  viability, T/C: 87%
[33]
  viability, T/C: 99.5%
[34]
  viability, T/C: 89.3%
[35]
  viability, T/C: 91.7%
[36]
  viability, T/C: 77.3%

## COc1cc2cc(C(=O)CCC(=O)O)sc2cc1OC + Cc1cccc(N(C)C(=O)C2C(O)CCN2c2nc(C)cc(C(F)(F)F)c2C#N)c1
Second compound 0.0316 µM
  IC50: > 10 µM
Second compound 0.1 µM
  IC50: > 10 µM
Second compound 0.316 µM
  IC50: > 10 µM
Second compound 1 µM
  IC50: > 10 µM
Second compound 3.16 µM
  IC50: > 10 µM
Second compound 10 µM
  IC50: > 10 µM
[1]
  viability, T/C: 104%
[2]
  viability, T/C: 92.7%
[3]
  viability, T/C: 95.1%
[4]
  viability, T/C: 101%
[5]
  viability, T/C: 100%
[6]
  viability, T/C: 84.8%
[7]
  viability, T/C: 107%
[8]
  viability, T/C: 101%
[9]
  viability, T/C: 105%
[10]
  viability, T/C: 99%
[11]
  viability, T/C: 91.7%
[12]
  viability, T/C: 94.2%
[13]
  viability, T/C: 99.5%
[14]
  viability, T/C: 112%
[15]
  viability, T/C: 86.7%
[16]
  viability, T/C: 108%
[17]
  viability, T/C: 106%
[18]
  viability, T/C: 95.9%
[19]
  viability, T/C: 107%
[20]
  viability, T/C: 107%
[21]
  viability, T/C: 96.2%
[22]
  viability, T/C: 96.5%
[23]
  viability, T/C: 104%
[24]
  viability, T/C: 88.5%
[25]
  viability, T/C: 112%
[26]
  viability, T/C: 97.7%
[27]
  viability, T/C: 105%
[28]
  viability, T/C: 87.4%
[29]
  viability, T/C: 110%
[30]
  viability, T/C: 94.9%
[31]
  viability, T/C: 99%
[32]
  viability, T/C: 107%
[33]
  viability, T/C: 101%
[34]
  viability, T/C: 90.9%
[35]
  viability, T/C: 100%
[36]
  viability, T/C: 87.3%
